{"source": "patent US8796416B1", "about": "“ACTH prophylactic treatment of renal disorders” (Questcor Pharmaceuticals, Inc, priority 2010, dated 2014)", "tested_on": "melanocortin receptor", "assay": "Melanocortin receptor modulation by ACTH1-39 (applicants' finding, no method given)"}
{"substance": "H-Ser-Tyr-Ser-Met-Glu-His-Phe-Arg-Trp-Gly-Lys-Pro-Val-Gly-Lys-Lys-Arg-Arg-Pro-Val-Lys-Val-Tyr-Pro-Asp-Gly-Ala-Glu-Asp-Gln-Leu-Ala-Glu-Ala-Phe-Pro-Leu-Glu-Phe-OH (H-SYSMEHFRWGKPVGKKRRPVKVYPDGAEDQLAEAFPLEF-OH) [ACTH1-39]", "values": [{"measurement": "melanocortin receptor modulation", "value": "pan-melanocortin receptor modulator"}]}
